Data on one substance can be found in patent publication US11801266B2, “Methods of using anti-MIR126 compounds” (CITY OF HOPE, priority 2019, dated 2023).

The subject of one series is CML HSCs. Briefly: Cell cycling (EdU and DAPI) in human CML HSCs. The format is cell-based. The following applies: 500 nM, compared to CpG-scrRNA-treated controls. As to the method: (§1) After transduction performed as above, GFP+ cells selected at 48 h were exposed to NIL (2 μM and 5 μM, Novartis) for another 72 h, and analyzed using assays for cell growth, apoptosis, cell cycle, CFC and CFC replating. Human HSCs and mouse LT-HSCs were also treated with CpG-miR-126 inhibitor or CpG-scrRNA (500 nM), with or without NIL (5 μM), for 72 h and analyzed for cell growth, apoptosis, cell cycle and CFC. Human CML HSCs co-cultured with control or miR-126 KD HUVECs and mouse CML LT-HSCs co-cultured with control or miR-126 KD ECs for 96 h, with or without NIL (5 μM), were also analyzed for cell growth, apoptosis, cell cycle and CFC. Cell growth was measured by Lumino Glo (Promega). Apoptosis was measured by labeling cells with Annexin V-PE or FITC or APC and 4, 6-diamidino-2-phenylindole (DAPI) (all from BD-PharMingen, San Diego, Calif.) and analyzed by flow cytometry. Cell cycle was analyzed by Ki-67-Alexa Fluor 647 (B56, BD) and DAPI labeling based on the manufacturer's protocol. Cells were also exposed to EdU (C10640, Invitrogen) for 2 h and EdU staining was analyzed according to the manufacturer's protocol. Cell proliferation was also measured by CFSE staining (Molecular probes) based on the manufacturer's protocol. […]

The test system of another series is normal HSCs. Briefly: Cell cycling (EdU and DAPI) in human normal HSCs. Type of series: cell-based. The note with it: 500 nM, compared to CpG-scrRNA-treated controls. Here is the method: as §1
The test system of a further series is normal BM LT-HSCs. Briefly: Cell cycling in mouse normal BM LT-HSCs. The format is cell-based. The following applies: 500 nM, 72 h. Here is the method: as §1
The subject of another series is miR-126. Briefly: In vivo miR-126 down-regulation in sorted LT-HSCs and ECs. The note with it: normal and CML mice, 5 mg/kg/day iv daily for 3 days; QPCR. Details: species or system mouse. Here is the method: Next, we evaluated CpG-miR-126 inhibitor-Cy3 uptake in mouse LT-HSCs and ECs in vitro and in vivo. […]
To measure the miRNA and mRNA expression, total RNA was extracted using the miRNeasy Mini Kit (Qiagen, Valencia, Calif.). For miRNA expression, reverse transcription using MultiScribe™ Reverse Transcriptase and Q-PCR analysis using Taqman assays (Applied Biosystems) were performed according to the manufacturer's protocol. RNU44 and snoRNA234 was used as internal controls for human and mouse miRNA respectively. For mRNA expression, first-strand cDNA was synthesized using the SuperScript III First-Strand Kit and then QPCR was performed using TaqMan Gene Expression Assays (Thermo Fisher). BCR-ABL expression in human and mouse samples were measured with primer and probe sequences for BCR-ABL (B3A2 or B2A2), as previously described^46. Results are presented as log 2-transformed ratio according to the 2−ΔCt method (ΔCt=Ct of target−Ct of reference).

The test system of another series is CML LSCs. Briefly: In vivo treatment of CML mice (SCLtTA/BCR-ABL BM cells transplanted into congenic B6 mice). More on the design: species or system mouse. Here is the method: Next, we transplanted BM cells from SCLtTA/BCR-ABL mice (CD45.2) into congenic B6 mice (CD45.1). Following confirmation of CML development at 4 weeks after transplantation, mice were treated as above with scrRNA, inhibitor, scrRNA+NIL, or inhibitor+NIL for 3 weeks.

The subject of another series is WT B6 mice. Briefly: Hematologic toxicity in normal WT B6 mice.
The subject of a further series is normal hematopoiesis. Briefly: Transplantation of BM cells from treated WT B6 mice into recipient mice. The format is in vivo, mouse. The note with it: recipients of BM cells from donor mice treated with scrRNA or inhibitor, 16 weeks after transplantation.
Another series relates to CML BM LT-HSCs. Briefly: Cell cycling in mouse CML BM LT-HSCs. The format is cell-based. The following applies: 500 nM, 72 h. As to the method: as §1
The mark [1] stands for this setting: WT B6 mice, 5 mg/kg/day i.v. for 3 weeks, compared with scrRNA-treated control mice.

Protocol for normal hematopoiesis: We treated WT B6 mice with CpG-scrRNA (scrRNA) or CpG-miR-126 inhibitor (inhibitor, 5 mg/kg/day i.v.) for 3 weeks, after which we collected their BM cells and transplanted them into recipient mice (3×10^5 BM cells/mouse).

“5′ G*G*T GCA TCG ATG CAGG*G*G* G*G xxxxx mCmGmC mAmUmU mAmUmU mAmCmU mCmAmC mGmGmU mAmCmG mA-3′ (GGTGCATCGATGCAGGGGGGCGCAUUAUUACUCACGGUACGA; CpG ODN, C3 linkers, phosphorothioate, 2'OMe; (1)..(2) phosphorothioation; (2)..(3) phosphorothioation; (16)..(17) phosphorothioation; (17)..(18) phosphorothioation; (18)..(19) phosphorothioation; (19)..(20) phosphorothioation; (20)..(21) Five C3 carbon chain linkers, ((CH2)3)5; modified_base (21)..(21) cm; modified_base (22)..(22) gm; modified_base (23)..(23) cm; modified_base (24)..(24) 2′-O-Methyladenosine; modified_base (25)..(26) um; mod) [CpG-miR-126 inhibitor, anti-miR-126 oligodeoxynucleotide linked to a CpG ODN (TLR9 ligand) by 5 C3 linker units; phosphothioated, 2′OMe-modified]”: the cell cycling result in the series with CML HSCs was “increased cell cycling”. The cell cycling entry with normal HSCs is reported as “increased cell cycling”. Besides, in the series on normal BM LT-HSCs, the cell cycling entry is reported as “increased cell cycling”. The “miR-126 down-regulation in sorted LT-HSCs and ECs” value in the series on miR-126 is given as “significant miR-126 down-regulation”. Also, the “miR-126 levels in total ECs, Sca-1+ECs and Sca-1-ECs from BM” value with CML LSCs (CML mice treated 3 weeks, compared with scrRNA-treated mice) is given as “significantly lower miR-126 levels”. The mice that survived with CML LSCs (CML mice, 3 weeks of treatment, followed 60 days after treatment discontinuation) was found to be 50%. In addition, in the series with WT B6 mice (setting [1]), the “numbers of ECs in the BM” value was “no significant differences”, the “numbers of LT-HSCs in the BM” value was “no significant differences”, the “numbers of WBCs in PB” value was “no significant differences” and the “numbers of mononuclear cells in the BM” value is recorded as “no significant differences”. For the same substance, in the series with WT B6 mice (setting [1]), the “numbers of platelets (PLT) in PB” value is “no significant differences” and the “numbers of red blood cells (RBC) in PB” value was “increased”. Further, the “pre-clinical toxicity for normal hematopoiesis” value with WT B6 mice (overall conclusion, WT B6 mice treated for 3 weeks) is reported as “lacks pre-clinical toxicity for normal hematopoiesis”. In addition, in the series on normal hematopoiesis, the “donor LT-HSC numbers in BM” value is on record as “no significant differences” and the “donor cell engraftment in PB, BM or spleen” value is recorded as “no significant differences”. For the same substance, the cell cycling result with CML BM LT-HSCs is “increased cell cycling”.
